Measurements published in PMC6522510 (Nature Communications, 2019).

Columns and labels:
Set-up in all cases: species or system AML cell lines (8); Primary HTS, single concentration about 10 uM, Cell Titer Glo viability; log10 luminescence, per cent inhibition relative to cycloheximide control
Conditions in all cases: 72 h, relative to cycloheximide control, log10 luminescence; inhibitor
ML-2 = tested on: ML-2
U937 = tested on: U937
M07e = tested on: M07e
CMK = tested on: CMK
CMS = tested on: CMS
CHRF288-11 = tested on: CHRF288-11
MV4-11 = tested on: MV4-11
MOLM-13 = tested on: MOLM-13

## COc1ccc2c(-c3ccnc(Nc4cccc(OC(F)(F)F)c4)n3)cnn2n1 [SJ000573232-1, U17838/93/4]
ML-2
  ML-2 %inh: 8.399%
U937
  U937 %inh: 2.538%
M07e
  M07e %inh: 3.247%
CMK
  CMK %inh: -2.18%
CMS
  CMS %inh: 1.867%
CHRF288-11
  CHRF288-11 %inh: 5.074%
MV4-11
  MV4-11 %inh: 0.503%
MOLM-13
  MOLM-13 %inh: -2.645%

## CCOc1ccc2c(-c3ccnc(Nc4cc(OC)cc(C(F)(F)F)c4)n3)cnn2n1 [SJ000573233-1, U17838/82/6]
ML-2
  ML-2 %inh: 0.4459%
U937
  U937 %inh: 1.137%
M07e
  M07e %inh: 5.562%
CMK
  CMK %inh: -2.522%
CMS
  CMS %inh: 0.7407%
CHRF288-11
  CHRF288-11 %inh: 13.25%
MV4-11
  MV4-11 %inh: 0.1159%
MOLM-13
  MOLM-13 %inh: -2.068%

## Clc1ccc(CNc2nccc(-c3cnn4ncccc34)n2)cc1 [SJ000573234-1, U16767/129/1]
ML-2
  ML-2 %inh: 6.981%
U937
  U937 %inh: 20.4%
M07e
  M07e %inh: 7.216%
CMK
  CMK %inh: 3.942%
CMS
  CMS %inh: 12.69%
CHRF288-11
  CHRF288-11 %inh: 14.43%
MV4-11
  MV4-11 %inh: 36.98%
MOLM-13
  MOLM-13 %inh: 8.357%

## CN1CCC(n2cnc(-c3ccc(F)cc3)c2-c2ccnc(Nc3ccccc3)n2)CC1 [SJ000573236-1, TG19207-284A1]
ML-2
  ML-2 %inh: 9.737%
U937
  U937 %inh: 6.434%
M07e
  M07e %inh: 7.373%
CMK
  CMK %inh: 43.62%
CMS
  CMS %inh: 10.11%
CHRF288-11
  CHRF288-11 %inh: 30.13%
MV4-11
  MV4-11 %inh: 26.4%
MOLM-13
  MOLM-13 %inh: 50.36%

## Cc1nn(C)c2cc(N(C)c3ccnc(Nc4cccc(S(N)(=O)=O)c4)n3)ccc12 [SJ000573237-1, U17574/1/1]
ML-2
  ML-2 %inh: 1.956%
U937
  U937 %inh: 9.474%
M07e
  M07e %inh: 4.667%
CMK
  CMK %inh: 54.18%
CMS
  CMS %inh: 12.43%
CHRF288-11
  CHRF288-11 %inh: 20.72%
MV4-11
  MV4-11 %inh: 42.73%
MOLM-13
  MOLM-13 %inh: 82.12%

## CN(C)CCNC(=O)Nc1ccc(N(C)c2ccnc(Nc3ccc(CS(C)(=O)=O)cc3)n2)cc1 [SJ000573239-1, U17983/95/3]
ML-2
  ML-2 %inh: 15.37%
U937
  U937 %inh: -1.201%
M07e
  M07e %inh: 0.06927%
CMK
  CMK %inh: 26.79%
CMS
  CMS %inh: -0.9741%
CHRF288-11
  CHRF288-11 %inh: 29.73%
MV4-11
  MV4-11 %inh: 73.54%
MOLM-13
  MOLM-13 %inh: 92.53%

## COc1ccc(CNC(=O)c2ccc(-c3cc(-c4nnc(C)o4)ccc3C)cc2)cc1 [SJ000573240-1, R5419/62/2]
ML-2
  ML-2 %inh: 2.422%
U937
  U937 %inh: 0.2137%
M07e
  M07e %inh: 1.245%
CMK
  CMK %inh: -2.585%
CMS
  CMS %inh: -0.9608%
CHRF288-11
  CHRF288-11 %inh: 2.517%
MV4-11
  MV4-11 %inh: -0.02622%
MOLM-13
  MOLM-13 %inh: 2.636%

## Cc1cc(O)cc(C)c1/C=C/c1cncc(C(=O)N(C)C)c1 [SJ000573241-1, U11962/4/2]
ML-2
  ML-2 %inh: -0.6112%
U937
  U937 %inh: -1.176%
M07e
  M07e %inh: 3.606%
CMK
  CMK %inh: 1.656%
CMS
  CMS %inh: 2.581%
CHRF288-11
  CHRF288-11 %inh: 4.933%
MV4-11
  MV4-11 %inh: 0.1016%
MOLM-13
  MOLM-13 %inh: -1.208%

## COC(=O)c1ccc2c(c1)C(=Cc1cc(Br)c(O)c(Br)c1)C(=O)N2 [SJ000573242-1, U8097/138/1]
ML-2
  ML-2 %inh: 8.878%
U937
  U937 %inh: 4.474%
M07e
  M07e %inh: 3.423%
CMK
  CMK %inh: 10.16%
CMS
  CMS %inh: 10.7%
CHRF288-11
  CHRF288-11 %inh: 6.512%
MV4-11
  MV4-11 %inh: 16.92%
MOLM-13
  MOLM-13 %inh: 7.69%

## NCc1ccc(-c2nc(-c3ccc(Cl)c(O)c3)c(-c3ccncc3)[nH]2)cc1 [SJ000573243-1, AN48585-012A1]
ML-2
  ML-2 %inh: 1.975%
U937
  U937 %inh: -0.0474%
M07e
  M07e %inh: 3.038%
CMK
  CMK %inh: 0.6536%
CMS
  CMS %inh: -0.03858%
CHRF288-11
  CHRF288-11 %inh: -2.078%
MV4-11
  MV4-11 %inh: 1.86%
MOLM-13
  MOLM-13 %inh: 4.769%

## CCn1c(-c2nonc2N)nc2cnc(Oc3cccc(NC(=O)c4ccc(N(C)C)cc4)c3)cc21 [SJ000573244-1, DG202759-186A1]
ML-2
  ML-2 %inh: 13.68%
U937
  U937 %inh: 5.13%
M07e
  M07e %inh: -4.099%
CMK
  CMK %inh: 54.89%
CMS
  CMS %inh: 1.931%
CHRF288-11
  CHRF288-11 %inh: 1.25%
MV4-11
  MV4-11 %inh: 28.29%
MOLM-13
  MOLM-13 %inh: 0.8338%

## CC(=O)NCc1cccc(C#Cc2cncnc2Nc2ccc(OCc3cccc(F)c3)c(Cl)c2)c1 [SJ000573245-1, U17810/92/1]
ML-2
  ML-2 %inh: 1.051%
U937
  U937 %inh: 4.477%
M07e
  M07e %inh: 1.428%
CMK
  CMK %inh: 4.208%
CMS
  CMS %inh: 2.982%
CHRF288-11
  CHRF288-11 %inh: -2.703%
MV4-11
  MV4-11 %inh: 1.627%
MOLM-13
  MOLM-13 %inh: 4.772%
